“Also recorded” adds a separate entry of the source.
Tests used:
β-gal positive cells = experiment: In vitro culture of FAC-sorted blue (β-gal positive) cells with or without EGF; type: cell-based; settings: medium containing EGF vs without EGF; FAC-sorted blue cells of the transgenic mouse
Method: FIGS. 6A and 6B show in vitro culture of β-gal positive cells after FAC sorting in absence (6A) or in presence (6B) of EGF.
The inventors isolated cells from a transgenic mouse as obtained in Example 1, and isolated them by FAC sorting. Only the blue cells were cultured in vitro.
Then for proof of concept, the cells were contacted with human recombinant EGF or without EGF. The growth factor was tested for its ability to keep the cells blue over time.

skin stem cells = experiment: Screening feasibility: number of blue clones per well of skin stem cells treated with factors; type: cell-based, mouse; settings: skin stem cells from 7 week-old Pw1nlacZ mice, 2 cells/μl, factors added after 3 days in culture, a week treatment, duplicates
Method: FIG. 9 is a graph showing the number of clones of skin stem cells after a week treatment with various factors (EGF, BMP2, BMP4, Activin A).
Fluorescence-activated cell sorting has been performed, dorsal skin from 7 week-old Pw1^nlacZ mice (n=3-5) were collected and cell preparation was obtained. For detection of nuclear β-galactosidase activity, a fluorescein di-β-D-galactopyranoside (FDG) staining kit (Invitrogen) was used according to manufacturer's instructions. Cells were then plated on 24 or 96 wells at density of 2 cells/μl. The cells were treated with 4 different factors after 3 days in culture: • EGF, Human recombinant protein from R&D system • BMP2, Human recombinant protein from Humanzyme • BMP4, Human recombinant protein from Humanzyme • Activin A, Human recombinant protein from Humanzyme
The analysis of the effect of different factors has been done using a simple readout: counting the number of blue clones per well. […] This experiment has been done in duplicates.

EGF: Human recombinant protein from R&D system
number of blue cells per clone (β-gal positive cells): greater; also recorded: higher
number of blue clones (β-gal positive cells): greater; also recorded: higher
number of blue clones per well (cell growth) (skin stem cells): allows the cells to grow

From patent US20130160151A1, “TRANSGENIC ANIMAL AS A MODEL FOR IDENTIFYING ADULT STEM CELLS, AND USES THEREOF” (Universite Pierre et Marie Curie (PARIS 6), priority 2010, published 2013)
